Data set [1] in a line: In vivo microPET imaging of normal nude mice. To be noted: judged from imaging results. Here is the method:
The stability of the resulting ^18F—B compound is critical as free [^18F]-fluoride ions could bind to the bones giving rise to unwanted and interfering background signals.^14 The stability of compound [^18F]-[2-F]^+ was first studied in PBS buffer at pH 7.5 over a period of several hours. […] In order to validate the approach for in vivo PET imaging, [^18F]-[2-F]^+ (prepared via the aqueous route) was injected into normal nude mice that were imaged using a microPET scanner 1 h, 2 h, and 4 h post injection. […] Thus, although probe compound [^18F]-[2-F]^+ lacks any specific targeting functionalities, its accumulation in these organs constitutes a normal phenomenon, in line with its hydrophobic and cationic nature.
(§1) Obvious bone uptake even at 3 h post injection was not observed, which is consistent with the reported high stability of BODIPY dyes. Next, the dual modality potential of the probe was confirmed. The animal was euthanized and liver, kidneys and muscle were harvested for ex vivo PET/fluorescence imaging. […] We also sectioned the kidney and observed the BODIPY fluorescent signal under microscope.
The nude mice were imaged using a microPET R4 rodent model scanner (Concorde Microsystems, Knoxyille, Tenn.) in the prone position. The mice were injected with 50-80 μCi of [^18F]-[2-F]^+ via the tail vein. […]

Data set [2] in a line: Ex vivo fluorescence and microPET imaging of dissected organs. It is filed as in vivo, nude mouse. The settings on record: organs harvested after microPET scan 4 h post injection.
Description: The dual modality operation of the probe was confirmed. To this end, the animal was euthanized and selected organs harvested for ex vivo fluorescence and microPET imaging (FIG. 4). The fluorescence images were obtained by irradiation of the organs at λ=500 nm. This wavelength was chosen because it falls within the absorption band of [2-F]^+ (see Supporting Information). The fluorescence image was reconstructed based on the emission intensity measured at λ=580±20 nm, a wavelength which is within the fluorescence band of [2-F]^+ (see Supporting Information).
as §1
To cross-evaluate the dual modality tracer ^18F-2-F, ex vivo fluorescence imaging was performed using a Lumina II small-animal imaging system (Xenogen, Alameda, Calif.). After the microPET imaging was done, the nude mouse was sacrificed. […] Fluorescent images were acquired and analyzed using Living Image 2.5 software (Xenogen). The fluorescence images were acquired using a 2-s exposure time (f-stop 4).

Results on one compound are retold here after patent publication US20130189185A1, “Boron-Based Dual Imaging Probes, Compositions and Methods for Rapid Aqueous F-18 Labeling, and Imaging Methods Using Same” (UNIVERSITY OF SOUTHERN CALIFORNIA, priority 2011, published 2013).

Turning to `CC1=CC(C)=[N+]2C1=C(c1ccc([N+](C)(C)C)cc1)c1c(C)cc(C)n1[B-]2(F)c1ccccc1` (stereo not drawn) [[2-F]^+], the stability in vivo result in data set [1] is “stable in vivo”. Besides, the “uptake in heart, representative bones and muscles, ex vivo” value in data set [2] was “minimal uptake”. For the same compound, the “accumulation of the probe in organs, ex vivo microPET and fluorescence” value in data set [2] (excitation 500 nm, emission 580±20 nm) was “accumulation of the probe in the liver and kidneys”.
